According to US5891917A, “Certain acrylonitrile-sulfonamide derivatives” (Sugen, Inc., priority 1997, dated 1999):

Key:
[1] = target: T1, EGFR (Homo sapiens, UniProt P00533); experiment: EGFR Whole Cell Kinase Assay (ELISA); format: cell-based; conditions: EGFR/C7 (NIH3T3) cells, 25 nM EGF
T1 construct: expressed in transfected cells; host or cells: NIH3T3 clone C7 (EGFR/C7, Honegger et al.)
Description: (§1) The following examples illustrate the ability of the exemplary compounds to inhibit receptor tyrosine kinases, such as HER2 and/or EGFR. The following target cells were used for cellular kinase assays: NIH3T3 clone C7 (Honegger et al., supra) engineered to over-express human EGF receptor; NIH3T3 cells engineered to over-express a chimeric receptor containing the EGFR extracellular domain and the HER2 intracellular kinase domain; the human mammary carcinoma line BT474 (ATCC HTB2) expressing HER2; and the human glioblastoma line U1242 that expresses PDGFR-beta. Growth assays were carried out using human mammary epithelial SKBR3 (ATCC HTB30) cells (SKBR3 cells over-express HER2), SKOV3 (ATCC HTB77) human ovarian cancer cell line (SKOV3 cells also over-express HER2), A431 cells (A431 cells over-express EGFR) MCF7 human breast carcinoma cells, MCF7 cells overexpressing the HER2 kinase (MCF7-HER2), NIH3T3 cells, and NIH3T3 cells overexpressing the HER2 kinase (3T3-HER2.
EGFR Whole Cell Kinase Assay
EGFR kinase activity (EGFR-3T3 assay) in whole cells was measured as described below:
A. Coat ELISA plates (Corning, 96 well, Cat. #25805-96) with 05-101 antibody at 0.5 μg per well in PBS, 150 μl final volume/well, and store overnight at 4° C. Coated plates are good for up to 10 days when stored at 4° C.
B. On day of use, remove coating buffer and replace with blocking buffer (5% Carnation Instant NonFat Dry Milk in PBS). Incubate the plate, shaking, at room temperature (about 23° C. to 25° C.) for 30 minutes. Just prior to use, remove blocking buffer and wash plate 4 times with TBST buffer.
A. EGFR/C7 cell line (Honegger, et al., supra) can be used for this assay.
B. Choose dishes having 80-90% confluence for the experiment. Trypsinize cells and stop reaction by adding 10% CS DMEM medium. Suspend cells in DMEM medium (10% CS DMEM medium) and centrifuge once at 1000 rpm, and once at room temperature for 5 minutes.
C. Resuspend cells in seeding medium (DMEM, 0.5% bovine serum), and count the cells using trypan blue. Viability above 90% is acceptable. Seed cells in DMEM medium (0.5% bovine serum) at a density of 10,000 cells per well, 100 μl per well, in a 96 well microtiter plate. Incubate seeded cells in 5% CO2 at 37° C. for about 40 hours.
A. Check seeded cells for contamination using an inverted microscope. Dilute drug stock (10 mg/ml in DMSO) 1:10 in DMEM medium, then transfer 5 μl to a test well for a final drug dilution of 1:200 and a final DMSO concentration of […]. Control wells receive DMSO alone. Incubate in 5% CO2 at 37° C. for one hour.
B. Prepare EGF ligand: dilute stock EGF in DMEM so that upon transfer of 10 μl dilute EGF (1:12 dilution), 25 nM final concentration is attained.
D. After two hours incubation with drug, add prepared EGF ligand to cells, 10 μl per well, to yield a final concentration of 25 nM. Control wells receive DMEM alone. Incubate, shaking, at room temperature, for 5 minutes.
E. Remove drug, EGF, and DMEM. Wash cells twice with PBS. Transfer HNTG* to cells, 100 μl per well. Place on ice for 5 minutes. Meanwhile, remove blocking buffer from other ELISA plate and wash with TBST as described above.
F. With a pipette tip securely fitted to a micropipettor, scrape cells from plate and homogenize cell material by repeatedly aspirating and dispensing the HNTG* lysis buffer. Transfer lysate to a coated, blocked, and washed ELISA plate. Incubate shaking at room temperature for one hour.
G. Remove lysate and wash 4 times with TBST. Transfer freshly diluted anti-Ptyr antibody to ELISA plate at 100 μl per well. Incubate shaking at room temperature for 30 minutes in the presence of the anti-Ptyr antiserum (1:3000 dilution in TBST).
H. Remove the anti-Ptyr antibody and wash 4 times with TBST. Transfer the freshly diluted TAGO 30 anti-rabbit IgG antibody (anti-rabbit IgG antibody: 1:3000 dilution in TBST) to the ELISA plate at 100 μl per well. Incubate shaking at room temperature for 30 minutes. […]

[2] = tested on: MCF7 cells; experiment: MCF-7 SRB Growth Assay; format: cell-based; conditions: Homo sapiens, read-out: Growth Data: MCF7 10% FBS
Description: as §1
MCF-7 cells are seeded at 2000 cells/well in a 96-well flat bottom plate in normal growth media, which was 10% FBS/RPMI supplemented with 2 mM Glutamine. The plate of cells is incubated for about 24 hours at […] after which it receives an equal volume of compound dilution per well making the total volume per well 200 μl. The compound is prepared at 2 times the desired highest final concentration and serially diluted in the normal growth media in a 96-well round bottom plate and then transferred to plate of cells. DMSO serves as the vector control up to 0.2% as final concentration. The cells are then incubated at 37° C. in a humidified 5% CO2 incubator.
Four days following dosing of compound, the media is 15 discarded and 200 μ/well of ice-cold 10% TCA (Trichloroacetic Acid) is added to fix cells. After 60 minutes at 4° C., the TCA is discarded and the plate is rinsed 5 times with water. The plate is then air-dried and 100 μl/well of 0.4% SRB (Sulforhodamine B from Sigma) 20 in 1% Acetic Acid is added to stain cells for 10 minutes at room temperature. The SRB is discarded and the plate is rinsed 5 times with 1% Acetic Acid. After the plate is completely dried, 100 μl/well of 10 mM Tris-base is added to solubilize the dye. After 5 to 10 minutes, the plate is read on a Dynatech ELISA Plate Reader at dual wavelengths at 570 nm and 630 nm.

T1 sequence (P00533 25-1210): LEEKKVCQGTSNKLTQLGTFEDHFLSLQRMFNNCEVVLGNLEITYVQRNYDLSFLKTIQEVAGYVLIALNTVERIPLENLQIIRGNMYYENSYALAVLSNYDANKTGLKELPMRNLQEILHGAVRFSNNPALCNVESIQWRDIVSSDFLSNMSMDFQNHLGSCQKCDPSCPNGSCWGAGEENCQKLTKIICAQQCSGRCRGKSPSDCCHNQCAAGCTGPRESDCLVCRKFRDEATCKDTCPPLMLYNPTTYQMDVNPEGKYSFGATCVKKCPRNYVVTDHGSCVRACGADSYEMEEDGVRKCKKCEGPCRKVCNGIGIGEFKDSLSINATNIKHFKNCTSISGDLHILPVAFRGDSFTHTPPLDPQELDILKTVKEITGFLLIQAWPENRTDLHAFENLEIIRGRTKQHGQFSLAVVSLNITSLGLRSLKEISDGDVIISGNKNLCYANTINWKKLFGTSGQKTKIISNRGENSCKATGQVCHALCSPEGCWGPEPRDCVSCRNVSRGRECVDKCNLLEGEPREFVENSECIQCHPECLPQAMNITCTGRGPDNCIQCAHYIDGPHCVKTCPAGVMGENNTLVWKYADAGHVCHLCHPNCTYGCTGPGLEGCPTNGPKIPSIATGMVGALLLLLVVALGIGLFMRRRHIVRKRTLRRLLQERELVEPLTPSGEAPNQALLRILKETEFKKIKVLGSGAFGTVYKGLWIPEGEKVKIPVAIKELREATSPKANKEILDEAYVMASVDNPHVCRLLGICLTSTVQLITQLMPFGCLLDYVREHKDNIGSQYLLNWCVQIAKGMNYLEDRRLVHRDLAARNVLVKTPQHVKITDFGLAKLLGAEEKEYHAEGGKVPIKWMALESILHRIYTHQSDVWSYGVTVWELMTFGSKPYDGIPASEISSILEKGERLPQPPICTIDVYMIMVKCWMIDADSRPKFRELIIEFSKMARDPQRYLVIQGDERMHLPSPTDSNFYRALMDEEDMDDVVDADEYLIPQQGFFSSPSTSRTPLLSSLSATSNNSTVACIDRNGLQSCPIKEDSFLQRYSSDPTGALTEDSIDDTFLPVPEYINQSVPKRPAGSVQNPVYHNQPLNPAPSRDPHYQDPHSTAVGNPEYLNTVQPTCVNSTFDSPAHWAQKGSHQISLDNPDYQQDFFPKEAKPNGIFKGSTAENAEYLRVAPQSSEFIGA

Row | Structure (SMILES) | IC50 [1] [µM] | IC50 [2] [µM]
1 | CC(C)c1cc(/C=C(\C#N)S(=O)(=O)c2ccccc2)cc(C(C)C)c1O [Compound 731] | 73.2 | 12
2 | CC(C)c1cc(/C=C(\C#N)S(=O)(=O)NCc2ccccc2)cc(C(C)C)c1O [Compound 732] | 58 | 13
3 | N#C/C(=C\c1ccc(O)cc1Cl)S(=O)(=O)NCc1ccccc1 [Compound 733] | > 100 | 65
4 | N#C/C(=C\c1ccc(O)cc1Cl)S(=O)(=O)NCCCc1ccccc1 [Compound 734] | > 100 | 56
5 | CC(C)c1cc(/C=C(\C#N)S(=O)(=O)c2cccs2)cc(C(C)C)c1O [Compound 737] | 77 | 16
6 | CC(C)c1cc(/C=C(\C#N)S(=O)(=O)c2ccsc2)cc(C(C)C)c1O [Compound 738] | 79.2 | 17
7 | Cc1cc(/C=C(\C#N)S(=O)(=O)Cc2cccc(C(F)(F)F)c2)cc(C)c1O [Compound 739] | > 100 | 35
8 | CC(C)c1cc(/C=C(\C#N)S(=O)(=O)c2ccc(F)cc2)cc(C(C)C)c1O [Compound 741, (E)-3-(3,5-Diisopropyl-4-hydroxyphenyl)-2-(4-fluorophenylsulfonyl)acrylonitrile] | 52.7 | 8
9 | N#C/C(=C\c1ccc(O)c(O)c1)S(=O)(=O)c1cccs1 [Compound 743, (E)-3-(3,4-Dihydroxyphenyl)-2-[(thien-2-yl)sulfonyl]acrylonitrile] | > 100 | 
10 | Cc1cc(/C=C(\C#N)S(=O)(=O)c2ccc(F)cc2)cc(C)c1O [Compound 744] | > 100 | > 100
11 | CC(C)c1cc(/C=C(\C#N)S(=O)(=O)/C(C#N)=C/c2cc(C(C)C)c(O)c(C(C)C)c2)cc(C(C)C)c1O [Compound 745] | < 100 | 
12 | CC(C)c1cc(/C=C(\C#N)S(=O)(=O)c2ccccn2)cc(C(C)C)c1O [Compound 747] |  | 55
13 | Cc1cc(/C=C(\C#N)S(=O)(=O)c2ccccc2)cc(C)c1O [Compound 748] |  | > 100

Continued, values first:

Row | IC50 [1] [µM] | IC50 [2] [µM] | Structure (SMILES)
14 |  | 0.7 | CC(C)(C)c1cc(/C=C(\C#N)S(=O)(=O)Cc2cccc(C(F)(F)F)c2)cc(C(C)(C)C)c1O [Compound 735]
15 | 100 | 8 | CC(C)c1cc(/C=C(\C#N)S(=O)(=O)Cc2cccc(C(F)(F)F)c2)cc(C(C)C)c1O [Compound 736]
16 | > 100 | 0.2 | CC(C)(C)c1cc(/C=C(\C#N)S(=O)(=O)c2ccc(F)cc2)cc(C(C)(C)C)c1O [Compound 740]
17 | > 100 | 2 | CC(C)(C)c1cc(/C=C(\C#N)S(=O)(=O)c2cccs2)cc(C(C)(C)C)c1O [Compound 742]
18 | > 100 | 2 | CC(C)(C)c1cc(/C=C(\C#N)S(=O)(=O)c2ccsc2)cc(C(C)(C)C)c1O [Compound 746]
